Experimental data published in patent EP4818177A1, “TRICYCLIC DERIVATIVE INHIBITOR, AND PREPARATION METHOD AND USE THEREFOR” (Shanghai Hansoh Biomedical Co., Ltd., priority 2023, dated 2025).

Tests used:
[1] = molecular target: T1, PRMT5/MEP50-MTA protein complex (Homo sapiens, UniProt O14744); test: Thermal shift assay: change in melting temperature of the PRMT5/MEP50-MTA protein complex; assay type: binding; settings: compound 8 µM, PRMT5/MEP50 2 µM, MTA 2 µM; Tm minus DMSO vehicle control
T1 construct: purchased Viva Biotech
Source text: Test Example 1: Determination of the ability of the compounds of the present invention to improve the thermal stability (melting temperature) of the PRMT5/MEP50-MTA protein complex.
1. Experimental objective: The objective of this test example is to determine the ability of the compound to improve the thermal stability of the PRMT5/MEP50-MTA protein complex, resulting in an increase in the protein melting temperature. 2. Experimental instruments: Quantitative PCR instrument (Quantstudio6 Flex) was purchased from Life Technologies; pipettes were purchased from Eppendorf or Rainin. 3. Experimental reagents and consumables: PRMT5/MEP50 protein was prepared by Viva Biotech; HEPES was purchased from Thermo Fisher Scientific (Cat. No. 15630080); DTT was purchased from Sigma (Cat. No. 43816-10ml); sodium chloride was purchased from Invitrogen (Cat. No. AM9760G); Protein Thermal Shift™ Dye Kit was purchased from Thermo Fisher Scientific (Cat. No. 4461146); methylthioadenosine (MTA) was purchased from Sigma (Cat. No. D5011). 4. Experimental methods: In this experiment, the thermal shift method was used to measure the change in the melting temperature (Tm) of the PRMT5/MEP50-MTA protein complex before and after compound binding, thereby characterising the ability of the compound to improve the thermal stability of the PRMT5/MEP50-MTA protein complex. A solution containing 50 mM HEPES, 10 mM DTT, 2 µM MTA, SYPRO Orange and 250 mM NaCl was prepared as the experimental buffer. Human PRMT5/MEP50 protein was added to a final concentration of 2 µM, and the mixture was incubated at room temperature for 30 minutes. The above reaction mixture was aliquoted into 8-strip PCR tubes at 19.5 µL per tube. Then 0.5 µL of test compound or DMSO was added to each tube, providing a total reaction volume of 20 µL and a final compound concentration of 8 µM. 2.5% DMSO was set as the vehicle control. After incubation at room temperature for 10 minutes, the PCR tubes were placed in a PCR instrument, and the melt curve function was selected to measure the melting temperature of the PRMT5/MEP50-MTA protein complex in different treatment groups (heated from 25°C to 95°C, 0.03°C/s). 5. Experimental data processing method: The experimental data files from the PCR instrument were imported into the thermal shift software to obtain the melting temperature (Tm) for each treatment group.

[2] = tested on: MTAP Knockout HCT116 cells; test: Cell proliferation inhibition (CellTiter-Glo), MTAP knockout cells; assay type: cell-based; settings: for Selectivity: HCT116 versus MTAP Knockout HCT116; for IC50: Homo sapiens, HCT-116, MTAP Knockout HCT116 cells, 72-240 hours incubation, CellTiter-Glo
Source text: (§1) Test Example 2: Determination of the inhibitory effect of the compounds of the present invention on the proliferation activity of HCT116 and MTAP Knockout HCT116 cells.
(§2) 1. Experimental objective: to determine the inhibitory effect of the compound on the proliferation activity of HCT116 wild-type and HCT116 MTAP knockout cells. 2. Experimental instruments: Centrifuge (Eppendorf 5810R); microplate reader (BioTek Synergy H1 or PerkinElmer Envision); pipette (Eppendorf or Rainin). 3. Experimental reagents: HCT116 and MTAP Knockout HCT116 cells were purchased from Nanjing Cobioer; Cell Titer-Glo was purchased from Promega (Cat. No. G7573); McCoy' 5A was purchased from Gibco (Cat. No. 12330031); FBS was purchased from Gibco (Cat. No. 10091148); PBS was purchased from Gibco (Cat. No. 10010023); trypsin was purchased from Gibco (Cat. No. 25200056); cell culture plates were purchased from Corning (Cat. No. 3610). 4. Experimental methods: HCT116 and MTAP Knockout HCT116 cells were cultured in McCoy'5A medium containing 10% FBS until an appropriate cell density was reached. The cells were then collected and adjusted to a suitable concentration using complete medium. The cell suspension was seeded into a 96-well plate at 90 µL per well and allowed to adhere overnight in a 37°C, 5% CO2 incubator. Compound solutions of various concentrations were prepared using DMSO and culture medium, with a vehicle control set. The compound solutions were added to the 96-well plate at 10 µL per well, and the plate was incubated in a 37°C, 5% CO2 incubator for an additional 72-240 hours. After incubation, CellTiter-Glo solution was added, and the mixture was mixed uniformly by shaking, followed by incubation in the dark for 10 to 30 minutes. Luminescence was measured using a Synergy H1 or Envision microplate reader. 5. Experimental data processing method: The inhibition rate was calculated using the luminescence signal values, and the concentrations along with the inhibition rates were subjected to non-linear regression curve fitting using Graphpad Prism software to obtain the IC50 values.

HCT116 wild-type cells = test: Cell proliferation inhibition (CellTiter-Glo), wild-type cells; assay type: cell-based; settings: Homo sapiens, HCT-116, HCT116 wild-type cells, 72-240 hours incubation
Source text: as §1, §2

[3] = Pharmacokinetics in rats (plasma) after oral administration; settings: male, SD, rat, 5 mg/kg
Procedure: Test Example 4: Determination of the pharmacokinetics of the compounds of the present invention in rats (plasma) after oral administration.
Study objective: SD rats were used as test animals to study the pharmacokinetic behaviour of the following example compounds in rats (plasma) after oral administration at a dose of 5 mg/kg. […] Test scheme 2.1 Test drugs: Vehicle formula: 0.5% CMC-Na (1% Tween 80); the examples of the present invention, prepared in house. 2.2 Test animals: 3 SD rats per group, male, purchased from Shanghai Bikai Keyi Biotechnology Co., Ltd., with animal license number (SCXK (Shanghai) 2018-0006, No.20180006037467). 2.3 Administration: 3 SD rats per group, male, were fasted overnight and then respectively administered PO at a dose of 5 mg/kg and a volume of 10 mL/kg. 2.4 Sample collection: 0.2 mL of blood was collected from the jugular vein of rats before administration and at 0, 0.25, 0.5, 1, 2, 4, 6, 8 and 24 h after administration, and placed in EDTA-K2test tubes, and the test tubes were centrifuged at 6,000 rpm at 4°C for 6 min to separate the plasma, which was stored at -80°C. The animals were fed 4 h after administration. 2.5 Sample treatment • 1) 160 uL of acetonitrile was added to 40 uL of plasma sample for precipitation, and after mixing, the mixture was centrifuged at 3,500 × g for 5-20 minutes. • 2) 100 uL of the treated supernatant solution was taken for LC/MS/MS analysis to determine the concentration of the test compounds. 2.6 Liquid phase analysis • Liquid phase conditions: Shimadzu LC-20AD pump; • Mass spectrometry conditions: AB Sciex API 4000 mass spectrometer; • Chromatographic column: phenomenex Gemiu 5 um C18 50 × 4.6 mm; • Mobile phase: solution A: 0.1% formic acid in water, solution B: methanol; • flow rate: 1.0 mL/min; Elution time: 0-4.0 min, with eluents as follows:
Experimental results and analysis: The main pharmacokinetic parameters were calculated using WinNonlin 8.2.

T1 sequence (O14744 whole entry): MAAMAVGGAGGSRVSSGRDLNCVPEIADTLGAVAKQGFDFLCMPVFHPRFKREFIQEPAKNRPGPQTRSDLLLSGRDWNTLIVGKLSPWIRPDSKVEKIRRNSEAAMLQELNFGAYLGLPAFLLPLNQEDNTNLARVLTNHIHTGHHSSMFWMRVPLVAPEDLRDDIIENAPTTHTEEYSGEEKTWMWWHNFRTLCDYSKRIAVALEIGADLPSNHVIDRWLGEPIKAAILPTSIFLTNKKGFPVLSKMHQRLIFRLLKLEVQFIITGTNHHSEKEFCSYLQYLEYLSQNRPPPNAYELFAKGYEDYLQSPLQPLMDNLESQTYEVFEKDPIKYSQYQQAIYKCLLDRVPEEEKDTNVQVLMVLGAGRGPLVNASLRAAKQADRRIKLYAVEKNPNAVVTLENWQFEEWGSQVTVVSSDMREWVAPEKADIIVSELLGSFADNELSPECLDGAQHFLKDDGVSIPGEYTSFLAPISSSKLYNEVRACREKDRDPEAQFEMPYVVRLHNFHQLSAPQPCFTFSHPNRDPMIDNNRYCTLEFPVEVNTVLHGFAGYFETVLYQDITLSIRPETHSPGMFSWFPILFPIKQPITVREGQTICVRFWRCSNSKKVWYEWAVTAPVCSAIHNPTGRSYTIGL
T1 sequence (Q9BQA1 whole entry partner): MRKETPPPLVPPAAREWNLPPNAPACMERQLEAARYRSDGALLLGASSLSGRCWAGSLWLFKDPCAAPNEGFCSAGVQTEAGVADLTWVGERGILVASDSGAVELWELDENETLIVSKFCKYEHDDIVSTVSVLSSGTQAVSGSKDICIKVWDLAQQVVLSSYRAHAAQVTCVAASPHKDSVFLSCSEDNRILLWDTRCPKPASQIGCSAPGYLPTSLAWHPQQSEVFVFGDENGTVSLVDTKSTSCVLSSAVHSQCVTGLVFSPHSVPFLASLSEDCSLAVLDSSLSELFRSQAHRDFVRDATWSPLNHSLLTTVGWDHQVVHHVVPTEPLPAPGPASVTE

| SMILES | ΔTm at 8 µM [1] [°C] | Selectivity [2] | IC50 [2] [nM] | IC50 (HCT116 wild-type cells) [nM] | AUC(0-inf) [3] [ng·h/mL] | Cmax [3] [ng/mL] | MRT inf [3] [h] | Tmax [3] [h] | half-life [3] [h] |
| --- | --- | --- | --- | --- | --- | --- | --- | --- | --- |
| CNN(C(=O)c1cc2c(cn1)nc(N)c1cnn(C)c12)[C@@H]1COc2cc(S(F)(F)(F)(F)F)ccc21 (single isomer, unassigned) [Example 375-P1] | 13 | 17 | 7.9 | 133 | 2130 | 287 | 5 | 1.3 | 3.3 |
| [2H]C([2H])([2H])NN(C(=O)c1cc2c3c(c(N)nc2cn1)COC3)[C@H]1COCc2c1ccn1c(C(F)(F)F)cnc21 (stereo in doubt) [Example 371-P1, (R)-4-amino-N'-(methyl-d3)-N-(3-(trifluoromethyl)-7,10-dihydro-8H-imidazo[1,2-a]pyrano[3,4-c]pyridin-7-yl)-1,3-dihydrofuro[3,4-c][1,7]naphthyridine-8-carbohydrazide] | 11.6 | 121 | 8.5 | 1040 | 4800 | 1600 | 2.5 | 0.8 | 1.6 |
| [2H]C([2H])([2H])NN(C(=O)c1ccc2nc(N)c3cnn(C)c3c2c1)C1COCc2c1ccn1c(C(F)(F)F)cnc21 (stereo not shown) [Example 436] | 11.5 | 185 | 8.9 | 1640 | 2030 | 143 | 14.9 | 3.3 | 10.8 |
| [2H]C([2H])([2H])NN(C(=O)c1cc2c3c(c(N)nc2cc1C)COC3)C1COCc2c1ccn1c(C(F)(F)F)cnc21 (stereo not shown) [Example 357, 4-Amino-7-methyl-N'-methyl-d3-N-(3-trifluoromethyl-7,10-dihydro-8H-imidazo[1,2-a]pyrano[3,4-c]pyridin-7-yl)-1,3-dihydrofuro[3,4-c]quinoline-8-carbohydrazide] | 12.2 | 100 | 7.6 | 760 | 1080 | 360 | 2.2 | 0.7 | 1.2 |
| [2H]C([2H])([2H])NN(C(=O)c1ccc2nc(N)c3cnn(C)c3c2c1)C1([2H])COCc2nc(C(F)(F)F)ccc21 (stereo not shown) [Example 324, 4-Amino-N-[5-deuterio-2-(trifluoromethyl)-6,8-dihydropyrano[3,4-b]pyridin-5-yl]-1-methyl-N'-(trideuteriomethyl)pyrazolo[4,3-c]quinoline-8-hydrazide] | 11.1 | 155 | 15 | 2380 | – | – | – | – | – |
| [2H]C([2H])([2H])NN(C(=O)c1ccc2nc(N)c3cnn(C)c3c2c1)[C@@H]1COCc2nc(C(F)(F)F)ccc21 [Example 317] | 11.6 | 130 | 3.9 | 508 | 739 | 240 | 2.8 | 1 | 1.9 |
| [2H]C([2H])([2H])NN(C(=O)c1cc2c3c(c(N)nc2cn1)COC3)[C@@]1([2H])COCc2c1ccn1c(C(F)(F)F)cnc21 [Example 354-P1, (R)-4-amino-N'-(methyl-d3)-N-(3-(trifluoromethyl)-7,10-dihydro-8H-imidazo[1,2-a]pyrano[3,4-c]pyridin-7-yl-7-d)-1,3-dihydrofuro[3,4-c][1,7]naphthyridine-8-carbohydrazide] | 11.6 | 107 | 23 | 2470 | – | – | – | – | – |
| CN(C(=O)c1ccc2nc(N)c3cnn(C)c3c2c1)C1COCc2c1ccn1c(C(F)(F)F)cnc21 (stereo not shown) [Example 83, 4-Amino-N,1-dimethyl-N-(3-(trifluoromethyl)-7,10-dihydro-8H-imidazo[1,2-a]pyrano[3,4-c]pyridin-7-yl)-1H-pyrazolo[4,3-c]quinoline-8-carboxamide] | 11.8 | 164 | 4.8 | 790 | – | – | – | – | – |
| CNN(C(=O)c1ccc2nc(N)c3cnn(C)c3c2c1)C1COCc2nc(C(F)(F)F)ccc21 (racemic) [Example 301, 4-Amino-N',1-dimethyl-N-[2-(trifluoromethyl)-6,8-dihydro-5H-pyrano[3,4-b]pyridin-5-yl]pyrazolo[4,3-c]quinoline-8-hydrazide] | 11.6 | 94 | 14 | 1360 | – | – | – | – | – |
| Cc1cc2nc(N)c3cncn3c2cc1C(=O)N(C)C1COCc2c1ccn1c(C(F)(F)F)cnc21 (stereo not shown) [Example 62, 4-Amino-N,7-dimethyl-N-(3-(trifluoromethyl)-7,10-dihydro-8H-imidazo[1,2-a]pyrano[3,4-c]pyridin-7-yl)imidazo[1,5-a]quinoxaline-8-carboxamide] | 12.5 | 113 | 7.2 | 808 | – | – | – | – | – |
| CNN(C(=O)c1cc2c(cc1C)nc(N)c1cnn(C)c12)C1COc2cc(S(F)(F)(F)(F)F)ccc21 (stereo not shown) [Example 451, 4-Amino-N',1,7-trimethyl-N-(6-(pentafluorosulphanyl)-2,3-dihydrobenzofuran-3-yl)-1H-pyrazolo[4,3-c]quinoline-8carbohydrazide] | 13.7 | 21 | 4.2 | 89 | – | – | – | – | – |
| CNN(C(=O)c1cc2c3c(c(N)nc2cn1)COC3)[C@@H]1COCc2c1ccn1c(C(F)(F)F)cnc21 [Example 285, 4-Amino-N'-methyl-N-(3-(trifluoromethyl)-7,10-dihydro-8H-imidazo[1,2-a]pyrano[3,4-c]pyridin-7-yl)-1,3-dihydrofuro[3,4-c][1,7]diazanaphthalene-8-carbohydrazide] | 11.6 | 120 | 10 | 1150 | 4980 | 999 | 4.8 | 0.8 | 4.2 |
| CNN(C(=O)c1cc2c3c(c(N)nc2cc1C)COC3)C1COCc2nc(C(F)(F)F)ccc21 (stereo not shown) [Example 307, 4-Amino-7-methyl-N'-methyl-N-(2-trifluoromethyl-5,8-dihydro-6H-pyrano[3,4-b]pyridin-5-yl)-1,3-dihydrofuro[3,4-c]quinoline-8-carbohydrazide] | 12.7 | 73 | 15 | 1060 | – | – | – | – | – |
